Patent US20240150321A1, “PYRAZOLYLSULFONAMIDE COMPOUNDS AND THEIR USE IN THERAPY” (HOTSPOT THERAPEUTICS, INC., priority 2022, published 2024)
Read-outs that look alike come from different tables or passages of the source.

Key:
[1] = tested on: NF-kB reporter in Jurkat cells; experiment: NF-kB reporter assay in Jurkat cells stimulated with aCD3/aCD28/PMA; type: cell-based; conditions: Homo sapiens, read-out: NF-kB Reporter Assay IC50
Outline: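 Jurkat cells (25,000/well, serum-free RPMI) were pre-incubated 1 h at 37° C with serially diluted compound, then stimulated 4 h with aCD3/aCD28/PMA at final […]. NF-kB reporter activity was read by One-Glo luminescence; IC50 values reported.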

Avi-tagged FL MALT-1 = Avi-tagged FL MALT-1 (Homo sapiens (Human), UniProt Q9UDY8); experiment: MALT-1 Fluorogenic Peptide Cleavage Assay (MALT1 inhibition assay); type: biochemical; conditions: Ac-LRSR-AMC peptide substrate, 30 min pre-incubation, 90 min reaction at room temperature
Chain of Avi-tagged FL MALT-1 (Q9UDY8 whole entry): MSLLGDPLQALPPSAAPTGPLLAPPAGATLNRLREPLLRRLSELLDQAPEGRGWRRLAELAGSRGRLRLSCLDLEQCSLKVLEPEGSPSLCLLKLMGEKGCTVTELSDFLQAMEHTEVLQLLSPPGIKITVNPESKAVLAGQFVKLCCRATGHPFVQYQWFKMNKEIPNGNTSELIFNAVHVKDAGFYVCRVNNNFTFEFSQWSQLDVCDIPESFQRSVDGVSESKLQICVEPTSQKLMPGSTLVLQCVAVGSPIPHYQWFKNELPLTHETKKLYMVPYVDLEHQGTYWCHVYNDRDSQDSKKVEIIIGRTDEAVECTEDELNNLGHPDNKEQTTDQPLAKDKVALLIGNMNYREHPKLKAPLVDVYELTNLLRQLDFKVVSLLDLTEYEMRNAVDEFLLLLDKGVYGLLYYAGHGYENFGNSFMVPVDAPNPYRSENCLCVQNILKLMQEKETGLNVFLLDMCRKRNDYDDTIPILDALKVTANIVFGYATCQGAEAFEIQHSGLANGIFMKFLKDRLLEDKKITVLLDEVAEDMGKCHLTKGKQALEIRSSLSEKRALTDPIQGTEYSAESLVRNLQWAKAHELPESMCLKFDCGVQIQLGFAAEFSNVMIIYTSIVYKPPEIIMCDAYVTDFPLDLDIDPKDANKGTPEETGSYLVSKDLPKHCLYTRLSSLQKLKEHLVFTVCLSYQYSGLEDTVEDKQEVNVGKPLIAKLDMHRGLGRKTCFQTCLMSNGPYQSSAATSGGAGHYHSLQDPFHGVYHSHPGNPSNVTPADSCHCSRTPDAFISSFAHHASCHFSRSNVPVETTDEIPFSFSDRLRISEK
Outline: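 Full-length Avi-tagged human MALT-1 (40 nM working stock) pre-incubated 30 min at RT with compound in 25 mM HEPES pH 6.89, 660 mM sodium citrate, 1 mM TCEP, […], 0.05% CHAPS, 2% DMSO. Ac-LRSR-AMC added at Km (50 μM working stock) or 10×Km (280 μM working stock); 90 min at RT, AMC fluorescence (ex 342/em 441 nm), IC50 from % inhibition curves.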

[2] = Jurkat cells, 1 hr compound pre-incubation, aCD3/aCD28/PMA stimulation 4 hr, One-Glo readout

Structure (SMILES)	IC50 [1, 2]	IC50 (Avi-tagged FL MALT-1)	IC50 ([1]; Jurkat)
COc1ccc2cnn(C)c2c1NS(=O)(=O)c1cnn(-c2cnn3c2COCCC3)c1 [Compound I-455, N-(6-methoxy-1-methylindazol-7-yl)-1-{4H,6H,7H,8H-pyrazolo[3,2-c][1,4]oxazepin-3-yl}pyrazole-4-sulfonamide]	1000 to 2500 nM	> 2500 nM	
Cn1ncc2cccc(NS(=O)(=O)c3cnn(-c4cc(N5CC(C)(C(N)=O)C5)ccn4)c3)c21 [Compound I-458]	> 2500 nM	> 2500 nM	
COc1ccc2cnn(C)c2c1NS(=O)(=O)c1cnn(-c2cc(N3CC(C(N)=O)C3)ccn2)c1 [Compound I-459]	> 2500 nM	> 2500 nM	
COc1ccc2cnn(C)c2c1NS(=O)(=O)c1cnn(-c2cc(N3CC(C)(C#N)C3)ccn2)c1 [Compound I-461]	400 to 1000 nM	> 2500 nM	
COc1ccc2cnn(C)c2c1NS(=O)(=O)c1cnn(-c2cc([C@@H](C)N3CCCCC3)ccn2)c1 [Compound I-463]	400 to 1000 nM	> 2500 nM	
Cn1ncc2cccc(NS(=O)(=O)c3cnn(-c4cnn5c4COCC5)c3)c21 [Compound I-464, N-(1-methylindazol-7-yl)-1-{4H,6H,7H-pyrazolo[3,2-c][1,4]oxazin-3-yl}pyrazole-4-sulfonamide]	400 to 1000 nM	> 2500 nM	
Cn1ncc2cccc(NS(=O)(=O)c3cnn(-c4cnn5c4OCCC5)c3)c21 [Compound I-465, N-(1-methylindazol-7-yl)-1-{5H,6H,7H-pyrazolo[3,2-b][1,3]oxazin-3-yl}pyrazole-4-sulfonamide]	1000 to 2500 nM	> 2500 nM	
CN1CCn2ncc(-n3cc(S(=O)(=O)Nc4cccc5cnn(C)c45)cn3)c2C1 [Compound I-466, 1-{5-methyl-4H,6H,7H-pyrazolo[1,5-a]pyrazin-3-yl}-N-(1-methylindazol-7-yl)pyrazole-4-sulfonamide]	> 2500 nM	> 2500 nM	
COc1ccc2cnn(C)c2c1NS(=O)(=O)c1cnn(-c2cnn3c2OCCC3)c1 [Compound I-467, N-(6-methoxy-1-methylindazol-7-yl)-1-{5H,6H,7H-pyrazolo[3,2-b] [1,3]oxazin-3-yl} pyrazole-4-sulfonamide]	> 2500 nM	> 2500 nM	
COc1ccc2cnn(C)c2c1NS(=O)(=O)c1cnn(-c2cnn3c2CN(C)CC3)c1 [Compound I-468, N-(6-methoxy-1-methylindazol-7-yl)-1-{5-methyl-4H,6H,7H-pyrazolo[1,5-a]pyrazin-3-yl}pyrazole-4-sulfonamide]	> 2500 nM	> 2500 nM	
Cn1ncc2cccc(NS(=O)(=O)c3cnn(-c4cc(C5(C#N)CC5)ccn4)c3)c21 [Compound I-469, 1-(4-(1-cyanocyclopropyl)pyridin-2-yl)-N-(1-methyl-1H-indazol-7-yl)-1H-pyrazole-4-sulfonamide]		> 2500 nM	< 400 nM
COc1ccc2cnn(C)c2c1NS(=O)(=O)c1cnn(-c2cc(C3(C#N)CC3)ccn2)c1 [Compound I-470, 1-[4-(1-cyanocyclopropyl)pyridin-2-yl]-N-(6-methoxy-1-methylindazol-7-yl)pyrazole-4-sulfonamide]		400 to 1000 nM	< 400 nM
Cn1ncc2cccc(NS(=O)(=O)c3cnn(-c4cc(N5CC(C(N)=O)C5)ccn4)c3)c21 [Compound I-471, 1-(2-(4-(N-(1-methyl-1H-indazol-7-yl)sulfamoyl)-1H-pyrazol-1-yl)pyridin-4-yl)azetidine-3-carboxamide]	> 2500 nM	> 2500 nM	
COc1ccc2cnn(C)c2c1NS(=O)(=O)c1cnn(-c2cc(N3CC(C)(C(N)=O)C3)ccn2)c1 [Compound I-472]	1000 to 2500 nM	> 2500 nM	
Cn1ncc2cccc(NS(=O)(=O)c3cnn(-c4cnc5n4CCOC5)c3)c21 [Compound I-473, 1-(5,6-dihydro-8H-imidazo[2,1-c][1,4]oxazin-3-yl)-N-(1-methyl-1H-indazol-7-yl)-1H-pyrazole-4-sulfonamide]	> 2500 nM	> 2500 nM	
COc1ccc2cnn(C)c2c1NS(=O)(=O)c1cnn(-c2cnn3c2COCC3)c1 [Compound I-474, N-(6-methoxy-1-methylindazol-7-yl)-1-{4H,6H,7H-pyrazolo[3,2-c][1,4]oxazin-3-yl}pyrazole-4-sulfonamide]	400 to 1000 nM	1000 to 2500 nM	
COc1ccc2cnn(C)c2c1NS(=O)(=O)c1cnn(-c2cnc3n2CCOC3)c1 [Compound I-475, 1-(5,6-dihydro-8H-imidazo[2,1-c][1,4]oxazin-3-yl)-N-(6-methoxy-1-methyl-1H-indazol-7-yl)-1H-pyrazole-4-sulfonamide]	> 2500 nM	> 2500 nM	

Now from value to compound, other results behind:

IC50 [1, 2]	IC50 (Avi-tagged FL MALT-1)	Structure (SMILES)	IC50 ([1]; Jurkat)
< 400 nM	1000 to 2500 nM	COc1ccc2cnn(C)c2c1NS(=O)(=O)c1cnn(-c2cc(N3CC(F)(F)C3)ccn2)c1 [Compound I-443, 1-[4-(3,3-difluoroazetidin-1-yl)pyridin-2-yl]-N-(6-methoxy-1-methylindazol-7-yl)pyrazole-4-sulfonamide]	
< 400 nM	> 2500 nM	COc1ccc2cnn(C)c2c1NS(=O)(=O)c1cnn(-c2cc(N3CC(C)(F)C3)ccn2)c1 [Compound I-444, 1-(4-(3-fluoro-3-methylazetidin-1-yl)pyridin-2-yl)-N-(6-methoxy-1-methyl-1H-indazol-7-yl)-1H-pyrazole-4-sulfonamide]	
< 400 nM	> 2500 nM	COc1ccc2cnn(C)c2c1NS(=O)(=O)c1cnn(-c2cc(N3CC(OC)C3)ccn2)c1 [Compound I-445]	
< 400 nM	> 2500 nM	COC1(C)CN(c2ccnc(-n3cc(S(=O)(=O)Nc4cccc5cnn(C)c45)cn3)c2)C1 [Compound I-446, 1-[4-(3-methoxy-3-methylazetidin-1-yl)pyridin-2-yl]-N-(1-methylindazol-7-yl)pyrazole-4-sulfonamide]	
400 to 1000 nM	> 2500 nM	Cn1ncc2cccc(NS(=O)(=O)c3cnn(-c4cnn5c4COCCC5)c3)c21 [Compound I-447, 1-(7,8-Dihydro-4H,6H-Pyrazolo[5,1-C][1,4]Oxazepin-3-yl)-N-(1-Methyl-1H-Indazol-7-yl)-1H-Pyrazole-4-Sulfonamide]	
< 400 nM	> 2500 nM	Cn1ncc2cccc(NS(=O)(=O)c3cnn(-c4cc(C5(C#N)CCCC5)ccn4)c3)c21 [Compound I-448, 1-(4-(1-cyanocyclopentyl)pyridin-2-yl)-N-(1-methyl-1H-indazol-7-yl)-1H-pyrazole-4-sulfonamide]	
< 400 nM	1000 to 2500 nM	COc1ccc2cnn(C)c2c1NS(=O)(=O)c1cnn(-c2cc(C3(C#N)CCCC3)ccn2)c1 [Compound I-449, 1-(4-(1-cyanocyclopentyl)pyridin-2-yl)-N-(6-methoxy-1-methyl-1H-indazol-7-yl)-1H-pyrazole-4-sulfonamide]	
< 400 nM	> 2500 nM	Cn1ncc2cccc(NS(=O)(=O)c3cnn(-c4cc(N5CC(C)(C#N)C5)ccn4)c3)c21 [Compound I-450, 1-(4-(3-cyano-3-methylazetidin-1-yl)pyridin-2-yl)-N-(1-methyl-1H-indazol-7-yl)-1H-pyrazole-4-sulfonamide]	
400 to 1000 nM	> 2500 nM	COc1ccc2cnn(C)c2c1NS(=O)(=O)c1cnn(-c2cc(N3CC(C)(OC)C3)ccn2)c1 [Compound I-453]	
400 to 1000 nM	> 2500 nM	COc1ccc2cnn(C)c2c1NS(=O)(=O)c1cnn(-c2cc(N3CC(C#N)C3)ccn2)c1 [Compound I-454]	
< 400 nM	> 2500 nM	Cn1ncc2cccc(NS(=O)(=O)c3cnn(-c4cc(C5(C#N)CCC5)ccn4)c3)c21 [Compound I-456]	
< 400 nM	400 to 1000 nM	COc1ccc2cnn(C)c2c1NS(=O)(=O)c1cnn(-c2cc(C3(C#N)CCC3)ccn2)c1 [Compound I-457, 1-(4-(1-Cyanocyclobutyl)Pyridin-2-yl)-N-(6-Methoxy-1-Methyl-1H-Indazol-7-yl)-1H-Pyrazole-4-Sulfonamide]	
< 400 nM	> 2500 nM	Cn1ncc2cccc(NS(=O)(=O)c3cnn(-c4cc(N5CC(C#N)C5)ccn4)c3)c21 [Compound I-460]	
< 400 nM	> 2500 nM	COc1ccc2cnn(C)c2c1NS(=O)(=O)c1cnn(-c2cc([C@H](C)N3CCCCC3)ccn2)c1 [Compound I-462, (S)—N-(6-Methoxy-1-Methyl-1H-Indazol-7-yl)-1-(4-(1-(Piperidin-1-yl)Ethyl)Pyridin-2-yl)-1H-Pyrazole-4-Sulfonamide]	
< 400 nM	≤ 400 nM	[2H]C([2H])([2H])Oc1ccc2cnn(C([2H])([2H])[2H])c2c1NS(=O)(=O)c1cnn(-c2cc(C(F)(F)F)ccn2)c1 [Compound I-476, N-(6-(methoxy-d3)-1-(methyl-d3)-1H-indazol-7-yl)-1-(4-(trifluoromethyl)pyridin-2-yl)-1H-pyrazole-4-sulfonamide]	
< 400 nM	> 2500 nM	Cn1ncc2cccc(NS(=O)(=O)c3cnn(-c4cc(C5(O)CC(C)(C)C5)ccn4)c3)c21 [Compound I-477, 1-(4-(1-hydroxy-3,3-dimethylcyclobutyl)pyridin-2-yl)-N-(1-methyl-1H-indazol-7-yl)-1H-pyrazole-4-sulfonamide]	
< 400 nM	> 2500 nM	COC1(c2ccnc(-n3cc(S(=O)(=O)Nc4cccc5cnn(C)c45)cn3)c2)CC(C)(C)C1 [Compound I-478, 1-(4-(1-methoxy-3,3-dimethylcyclobutyl)pyridin-2-yl)-N-(1-methyl-1H-indazol-7-yl)-1H-pyrazole-4-sulfonamide]	
